Data taken from ChEMBL document CHEMBL3352578 (J Med Chem, 2014).
Calls of active or inactive are those of the source. The rule behind the calls is not given here.

Experiments:
[1] = Metabolic stability in rat liver microsomes assessed as compound metabolized at 5 uM after 15 mins by MS/MS analysis in presence of NADPH; format: ADME; conditions: read-out: Drug metabolism
[2] = target: T1, Metabotropic glutamate receptor 2 (Homo sapiens, UniProt Q14416); test: Positive allosteric modulation of human mGlu2 receptor expressed in CHO cells assessed as potentiation of glutamate-induced effect incubated for 30 mins prior to [35S]GTPgamma addition measured after 30 mins; format: functional, cell-based
Target sequence in this assay (Q14416 whole entry): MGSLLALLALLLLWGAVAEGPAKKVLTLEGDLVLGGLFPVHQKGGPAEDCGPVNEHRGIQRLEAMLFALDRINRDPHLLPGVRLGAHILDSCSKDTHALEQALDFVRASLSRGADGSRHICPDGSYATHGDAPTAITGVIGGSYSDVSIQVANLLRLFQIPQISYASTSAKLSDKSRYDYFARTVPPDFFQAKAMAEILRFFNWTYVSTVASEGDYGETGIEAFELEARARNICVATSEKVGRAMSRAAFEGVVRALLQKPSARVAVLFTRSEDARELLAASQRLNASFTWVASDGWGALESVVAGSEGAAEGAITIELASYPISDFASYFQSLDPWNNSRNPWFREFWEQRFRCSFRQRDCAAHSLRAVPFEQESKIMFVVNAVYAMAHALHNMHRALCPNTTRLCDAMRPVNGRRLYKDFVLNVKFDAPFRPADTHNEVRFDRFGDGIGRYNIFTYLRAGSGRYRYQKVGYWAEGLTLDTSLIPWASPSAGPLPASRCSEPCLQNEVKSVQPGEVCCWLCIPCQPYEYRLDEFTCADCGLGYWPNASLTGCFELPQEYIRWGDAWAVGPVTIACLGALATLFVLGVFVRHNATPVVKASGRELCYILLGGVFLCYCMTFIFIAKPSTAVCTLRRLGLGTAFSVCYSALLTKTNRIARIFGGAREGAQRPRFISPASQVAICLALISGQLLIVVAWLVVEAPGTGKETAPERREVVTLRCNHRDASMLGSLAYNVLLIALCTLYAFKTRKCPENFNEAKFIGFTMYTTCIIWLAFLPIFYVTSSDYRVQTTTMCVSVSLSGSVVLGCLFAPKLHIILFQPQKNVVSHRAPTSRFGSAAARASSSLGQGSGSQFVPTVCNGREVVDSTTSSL

[3] = target: T1, Metabotropic glutamate receptor 2; test: Positive allosteric modulation of human mGlu2 receptor expressed in CHO cells assessed as potentiation of glutamate-induced effect incubated for 30 mins prior to [35S]GTPgamma addition measured after 30 mins relative to glutamate; format: functional, cell-based
Target sequence in this assay (Q14416 19-872 limits assumed): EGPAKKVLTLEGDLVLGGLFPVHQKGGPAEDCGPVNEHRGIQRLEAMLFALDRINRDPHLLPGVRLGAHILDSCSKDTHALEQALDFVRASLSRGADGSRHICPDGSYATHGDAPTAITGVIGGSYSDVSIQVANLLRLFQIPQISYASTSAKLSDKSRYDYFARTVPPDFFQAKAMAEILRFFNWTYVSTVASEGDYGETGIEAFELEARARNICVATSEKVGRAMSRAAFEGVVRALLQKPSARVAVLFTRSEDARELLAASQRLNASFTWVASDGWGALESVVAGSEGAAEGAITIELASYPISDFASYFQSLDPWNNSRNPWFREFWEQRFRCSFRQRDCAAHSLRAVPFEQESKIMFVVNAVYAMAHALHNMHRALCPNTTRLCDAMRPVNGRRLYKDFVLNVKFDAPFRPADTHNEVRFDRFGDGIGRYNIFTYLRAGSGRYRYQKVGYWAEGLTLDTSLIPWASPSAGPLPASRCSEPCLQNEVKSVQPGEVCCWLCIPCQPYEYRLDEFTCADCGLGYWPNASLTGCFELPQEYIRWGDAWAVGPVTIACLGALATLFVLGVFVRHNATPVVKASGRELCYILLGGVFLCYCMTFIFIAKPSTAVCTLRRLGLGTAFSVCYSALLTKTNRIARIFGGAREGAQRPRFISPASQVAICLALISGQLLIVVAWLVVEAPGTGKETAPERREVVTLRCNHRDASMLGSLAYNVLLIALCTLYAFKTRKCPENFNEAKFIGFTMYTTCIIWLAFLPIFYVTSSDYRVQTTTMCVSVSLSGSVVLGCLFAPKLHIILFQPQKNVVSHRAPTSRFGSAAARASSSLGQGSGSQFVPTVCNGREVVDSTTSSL

[4] = Metabolic stability in human liver microsomes assessed as compound metabolized at 5 uM after 15 mins by MS/MS analysis in presence of NADPH; format: ADME; conditions: read-out: Drug metabolism
hERG (KCNH2) = hERG (KCNH2) (Homo sapiens, UniProt Q12809); test: Inhibition of human ERG channel transfected in HEK293 cells at 3 uM by patch clamp technique; format: cell-based; conditions: HEK293 cells transfected with human ERG channel
Chain of hERG (KCNH2) (Q12809 whole entry): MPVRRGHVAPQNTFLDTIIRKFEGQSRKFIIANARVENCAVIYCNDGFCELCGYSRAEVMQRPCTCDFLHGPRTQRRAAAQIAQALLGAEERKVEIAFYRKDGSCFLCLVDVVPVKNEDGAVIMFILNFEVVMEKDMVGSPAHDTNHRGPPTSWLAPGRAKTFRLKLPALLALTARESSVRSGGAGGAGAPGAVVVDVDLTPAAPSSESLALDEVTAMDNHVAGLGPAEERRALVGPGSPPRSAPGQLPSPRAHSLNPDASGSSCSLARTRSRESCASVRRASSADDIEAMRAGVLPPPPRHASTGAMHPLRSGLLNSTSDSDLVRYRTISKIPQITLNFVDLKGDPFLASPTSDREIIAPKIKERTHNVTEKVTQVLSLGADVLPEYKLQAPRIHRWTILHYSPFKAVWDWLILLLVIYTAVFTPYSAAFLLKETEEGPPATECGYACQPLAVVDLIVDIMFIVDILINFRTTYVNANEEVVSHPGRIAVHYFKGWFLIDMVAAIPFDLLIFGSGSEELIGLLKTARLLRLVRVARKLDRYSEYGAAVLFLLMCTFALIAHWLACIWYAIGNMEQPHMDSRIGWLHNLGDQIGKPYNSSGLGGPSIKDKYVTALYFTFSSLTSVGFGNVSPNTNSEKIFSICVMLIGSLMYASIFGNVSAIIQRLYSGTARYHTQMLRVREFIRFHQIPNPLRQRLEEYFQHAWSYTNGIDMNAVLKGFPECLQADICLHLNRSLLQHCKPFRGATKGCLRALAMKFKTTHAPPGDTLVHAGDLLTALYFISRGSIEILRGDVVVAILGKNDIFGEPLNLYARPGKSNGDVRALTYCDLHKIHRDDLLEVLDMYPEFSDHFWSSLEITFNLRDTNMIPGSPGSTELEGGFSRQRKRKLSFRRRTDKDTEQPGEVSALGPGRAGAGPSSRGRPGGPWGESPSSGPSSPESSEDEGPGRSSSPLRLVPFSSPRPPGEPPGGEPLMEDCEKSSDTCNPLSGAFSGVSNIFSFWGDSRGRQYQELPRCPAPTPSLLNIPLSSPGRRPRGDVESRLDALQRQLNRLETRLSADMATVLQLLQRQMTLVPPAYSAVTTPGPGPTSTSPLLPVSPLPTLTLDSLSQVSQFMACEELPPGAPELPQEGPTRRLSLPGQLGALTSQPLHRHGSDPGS

Rattus norvegicus [5] = test: Positive allosteric modulation of mGlu2 receptor in po dosed Sprague-Dawley rat assessed effect on sleep-wake EEG paradigm after 20 hrs by electroencephalogram analysis; format: functional; conditions: for minimal effective dose: Rattus norvegicus, Sprague-Dawley, po, 20 h, read-out: MED
[6] = Cmax in Sprague-Dawley rat at 10 mg/kg, po; format: ADME, organism-based; design: dose 10 mg/kg, route oral; conditions: in vivo
[7] = Clearance in Sprague-Dawley rat at 2.5 mg/kg, iv; format: ADME, organism-based; design: dose 2.5 mg/kg, route intravenous; conditions: in vivo
[8] = Tmax in Sprague-Dawley rat at 2.5 mg/kg, iv; format: ADME, organism-based; design: dose 2.5 mg/kg, route intravenous; conditions: in vivo
[9] = Oral bioavailability in Sprague-Dawley rat at 10 mg/kg; format: ADME, organism-based; conditions: in vivo
Rattus norvegicus [10] = test: Positive allosteric modulation of mGlu2 receptor in Sprague-Dawley rat sleep-wake EEG paradigm model assessed as effect on intermediate state at 3 mg/kg, po after 4 hrs by electroencephalogram analysis; format: functional, organism-based; design: dose 3 mg/kg
Rattus norvegicus [11] = test: Positive allosteric modulation of mGlu2 receptor in Sprague-Dawley rat sleep-wake EEG paradigm model assessed as effect on deep sleep stage at 3 mg/kg, po after 4 hrs by electroencephalogram analysis; format: functional, organism-based; design: dose 3 mg/kg
Rattus norvegicus [12] = test: Positive allosteric modulation of mGlu2 receptor in Sprague-Dawley rat sleep-wake EEG paradigm model assessed as reduction in REM sleep at 3 mg/kg, po after 4 hrs by electroencephalogram analysis; format: functional, organism-based; design: dose 3 mg/kg
[13] = AUC (0 to infinity) in Sprague-Dawley rat at 10 mg/kg, po; format: ADME, organism-based; design: time infinity, dose 10 mg/kg, route oral; conditions: plasma
[14] = Ratio of drug level in brain to plasma in Swiss mouse at 10 mg/kg, sc after 1 hr; format: ADME, organism-based; design: dose 10 mg/kg, route subcutaneous; conditions: brain and plasma, read-out: BPR
[15] = Elimination half life in Sprague-Dawley rat at 2.5 mg/kg, iv; format: ADME, organism-based; design: dose 2.5 mg/kg, route intravenous; conditions: in vivo, read-out: beta t1/2 (converted)
Rattus norvegicus [16] = test: Positive allosteric modulation of mGlu2 receptor in Sprague-Dawley rat sleep-wake EEG paradigm model assessed as effect on active wake stage at 3 mg/kg, po after 4 hrs by electroencephalogram analysis; format: functional, organism-based; design: dose 3 mg/kg
Rattus norvegicus [17] = test: Positive allosteric modulation of mGlu2 receptor in Sprague-Dawley rat sleep-wake EEG paradigm model assessed as effect on passive wake stage at 3 mg/kg, po after 4 hrs by electroencephalogram analysis; format: functional, organism-based; design: dose 3 mg/kg
Rattus norvegicus [18] = test: Positive allosteric modulation of mGlu2 receptor in Sprague-Dawley rat sleep-wake EEG paradigm model assessed as effect on light sleep stage at 3 mg/kg, po after 4 hrs by electroencephalogram analysis; format: functional, organism-based; design: dose 3 mg/kg

N#Cc1c(N2CCC(c3ccccc3)CC2)ccn(CC2CCC2)c1=O
metabolised at 0.25 h, 5 µM [1]: 86%
EC50 [2]: 55 nM
Emax [3]: 269%
metabolised at 0.25 h, 5 µM [4]: 46%

CC(C)CCn1ccc(-c2ccccc2)c(C#N)c1=O
metabolised at 0.25 h, 5 µM [1]: 100%
Emax [3]: 135%
metabolised at 0.25 h, 5 µM [4]: 36%

O=c1c(C(F)(F)F)c(N2CCC(c3ccccc3)CC2)ccn1CC1CC1
metabolised at 0.25 h, 5 µM [1]: 89%
Emax [3]: 239%
metabolised at 0.25 h, 5 µM [4]: 33%

N#Cc1c(N2CCC(c3cc(F)cc(F)c3)CC2)ccn(CC2CC2)c1=O
metabolised at 0.25 h, 5 µM [1]: 45%
EC50 [2]: 151 nM
Emax [3]: 234%
metabolised at 0.25 h, 5 µM [4]: 30%
inhibition at 3 µM (hERG (KCNH2)): 95%

CC(C)Cn1ccc(N2CCC(c3ccccc3)CC2)c(C#N)c1=O
metabolised at 0.25 h, 5 µM [1]: 47%
EC50 [2]: 282 nM
Emax [3]: 316%
metabolised at 0.25 h, 5 µM [4]: 37%

N#Cc1c(N2CCC(c3cccc(F)c3)CC2)ccn(CC2CC2)c1=O
metabolised at 0.25 h, 5 µM [1]: 37%
EC50 [2]: 141 nM
Emax [3]: 268%
metabolised at 0.25 h, 5 µM [4]: 35%
inhibition at 3 µM (hERG (KCNH2)): 87%

N#Cc1c(N2CCC(c3ccccc3Cl)CC2)ccn(CC2CC2)c1=O
metabolised at 0.25 h, 5 µM [1]: 34%
EC50 [2]: 49 nM
Emax [3]: 259%
metabolised at 0.25 h, 5 µM [4]: 22%

CC(C)CCn1ccc(OCc2ccccc2)c(C#N)c1=O
metabolised at 0.25 h, 5 µM [1]: 90%
EC50 [2]: 2950 nM
Emax [3]: 173%
metabolised at 0.25 h, 5 µM [4]: 22%

N#Cc1c(N2CCC(c3ccccc3)CC2)ccn(CCC2CC2)c1=O
metabolised at 0.25 h, 5 µM [1]: 61%
EC50 [2]: 178 nM
Emax [3]: 316%
metabolised at 0.25 h, 5 µM [4]: 50%

CC(C)CCn1ccc(N2CCN(c3ccccc3)CC2)c(C#N)c1=O
metabolised at 0.25 h, 5 µM [1]: 90%
EC50 [2]: 661 nM
Emax [3]: 118%
metabolised at 0.25 h, 5 µM [4]: 50%

CC(C)CCn1ccc(CCc2ccccc2)c(C#N)c1=O
metabolised at 0.25 h, 5 µM [1]: 99%
EC50 [2]: 361 nM
Emax [3]: 168%
metabolised at 0.25 h, 5 µM [4]: 91%

CC(C)CCn1ccc(N2CCCCC2)c(C#N)c1=O
metabolised at 0.25 h, 5 µM [1]: 100%
EC50 [2]: 31600 nM
Emax [3]: 185%
metabolised at 0.25 h, 5 µM [4]: 67%

CC(C)CCn1ccc(N2CCN(Cc3ccccc3)CC2)c(C#N)c1=O
metabolised at 0.25 h, 5 µM [1]: 85%
EC50 [2]: 4680 nM
Emax [3]: 304%
metabolised at 0.25 h, 5 µM [4]: 38%

CCCCn1ccc(N2CCC(c3ccccc3)CC2)c(C#N)c1=O
metabolised at 0.25 h, 5 µM [1]: 62%
EC50 [2]: 95 nM
Emax [3]: 309%
metabolised at 0.25 h, 5 µM [4]: 30%

N#Cc1c(N2CCC(c3ccccc3F)CC2)ccn(CC2CC2)c1=O
metabolised at 0.25 h, 5 µM [1]: 42%
EC50 [2]: 81 nM
Emax [3]: 282%
metabolised at 0.25 h, 5 µM [4]: 30%
inhibition at 3 µM (hERG (KCNH2)): 75%

N#Cc1c(N2CCC(c3ccccc3)CC2)ccn(CCCC(F)(F)F)c1=O
metabolised at 0.25 h, 5 µM [1]: 43%
EC50 [2]: 355 nM
Emax [3]: 302%
metabolised at 0.25 h, 5 µM [4]: 18%

N#Cc1c(N2CCC(c3ccccc3)CC2)ccn(CC2CC2)c1=O
metabolised at 0.25 h, 5 µM [1]: 44%
MEC (Rattus norvegicus [5]): 420 ng/mL
minimal effective dose (Rattus norvegicus [5]): 3 mg/kg
Cmax [6]: 1410 ng/mL
clearance [7]: 18 mL/min/kg
Tmax [8]: 0.5 h
bioavailability [9]: 51%
Activity (Rattus norvegicus [10]): inactive
Activity (Rattus norvegicus [11]): inactive
Activity (Rattus norvegicus [12]): Active
AUC(0-inf) [13]: 4350 ng·h/mL
Kp at 1 h [14]: 0.3
half-life [15]: 2.1 h
Activity (Rattus norvegicus [16]): inactive
EC50 [2]: 151 nM
Emax [3]: 309%
Activity (Rattus norvegicus [17]): inactive
metabolised at 0.25 h, 5 µM [4]: 25%
inhibition at 3 µM (hERG (KCNH2)): 58%
Activity (Rattus norvegicus [18]): inactive

CC(C)CCn1ccc(N2CCN(c3ccccn3)CC2)c(C#N)c1=O
metabolised at 0.25 h, 5 µM [1]: 54%
EC50 [2]: 3090 nM
Emax [3]: 304%
metabolised at 0.25 h, 5 µM [4]: 51%

N#Cc1c(N2CCC(c3cccc(C(F)(F)F)c3)CC2)ccn(CC2CC2)c1=O
metabolised at 0.25 h, 5 µM [1]: 39%
EC50 [2]: 46 nM
Emax [3]: 191%
metabolised at 0.25 h, 5 µM [4]: 35%
inhibition at 3 µM (hERG (KCNH2)): 97%

N#Cc1c(N2CCC(c3ccc(Cl)cc3)CC2)ccn(CC2CC2)c1=O
metabolised at 0.25 h, 5 µM [1]: 21%
EC50 [2]: 48 nM
Emax [3]: 249%
metabolised at 0.25 h, 5 µM [4]: 28%

N#Cc1c(N2CCC(c3ccc(F)cc3F)CC2)ccn(CC2CC2)c1=O
metabolised at 0.25 h, 5 µM [1]: 34%
EC50 [2]: 68 nM
Emax [3]: 272%
metabolised at 0.25 h, 5 µM [4]: 17%

CC(C)CCn1ccc(N2CCc3ccccc3C2)c(C#N)c1=O
metabolised at 0.25 h, 5 µM [1]: 100%
EC50 [2]: 871 nM
Emax [3]: 310%
metabolised at 0.25 h, 5 µM [4]: 74%

COc1ccc(C2CCN(c3ccn(CC4CC4)c(=O)c3C#N)CC2)cc1
metabolised at 0.25 h, 5 µM [1]: 57%
EC50 [2]: 98 nM
Emax [3]: 257%
metabolised at 0.25 h, 5 µM [4]: 76%

N#Cc1c(N2CCC(c3ccc(F)cc3)CC2)ccn(CC2CC2)c1=O
metabolised at 0.25 h, 5 µM [1]: 36%
EC50 [2]: 89 nM
Emax [3]: 258%
metabolised at 0.25 h, 5 µM [4]: 31%
inhibition at 3 µM (hERG (KCNH2)): 89%

COc1ccccc1C1CCN(c2ccn(CC3CC3)c(=O)c2C#N)CC1
metabolised at 0.25 h, 5 µM [1]: 68%
EC50 [2]: 35 nM
Emax [3]: 265%
metabolised at 0.25 h, 5 µM [4]: 53%
inhibition at 3 µM (hERG (KCNH2)): 65%

O=c1c(Cl)c(N2CCC(c3ccccc3)CC2)ccn1CC1CC1
metabolised at 0.25 h, 5 µM [1]: 30%
MEC (Rattus norvegicus [5]): >986 ng/mL
minimal effective dose (Rattus norvegicus [5]): > 10 mg/kg
Cmax [6]: 986 ng/mL
clearance [7]: 24 mL/min/kg
Tmax [8]: 0.5 h
bioavailability [9]: 34%
Activity (Rattus norvegicus [10]): inactive
Activity (Rattus norvegicus [11]): inactive
Activity (Rattus norvegicus [12]): inactive
AUC(0-inf) [13]: 2310 ng·h/mL
Kp at 1 h [14]: 0.9
half-life [15]: 3.5 h
Activity (Rattus norvegicus [16]): inactive
EC50 [2]: 170 nM
Emax [3]: 259%
Activity (Rattus norvegicus [17]): inactive
metabolised at 0.25 h, 5 µM [4]: 17%
inhibition at 3 µM (hERG (KCNH2)): 51%
Activity (Rattus norvegicus [18]): inactive

N#Cc1c(N2CCC(c3c(F)cccc3F)CC2)ccn(CC2CC2)c1=O
metabolised at 0.25 h, 5 µM [1]: 42%
EC50 [2]: 31 nM
Emax [3]: 291%
metabolised at 0.25 h, 5 µM [4]: 18%
inhibition at 3 µM (hERG (KCNH2)): 86%

CC(C)Cn1ccc(N2CCC(c3ccccc3)CC2)c(Cl)c1=O
metabolised at 0.25 h, 5 µM [1]: 31%
MEC (Rattus norvegicus [5]): 407 ng/mL
minimal effective dose (Rattus norvegicus [5]): 3 mg/kg
Cmax [6]: 1360 ng/mL
clearance [7]: 13 mL/min/kg
Tmax [8]: 0.7 h
bioavailability [9]: 25%
Activity (Rattus norvegicus [10]): inactive
Activity (Rattus norvegicus [11]): inactive
Activity (Rattus norvegicus [12]): Active
AUC(0-inf) [13]: 3460 ng·h/mL
Kp at 1 h [14]: 0.8
half-life [15]: 2.6 h
Activity (Rattus norvegicus [16]): inactive
Emax [3]: 260%
Activity (Rattus norvegicus [17]): inactive
metabolised at 0.25 h, 5 µM [4]: 12%
inhibition at 3 µM (hERG (KCNH2)): 24%
Activity (Rattus norvegicus [18]): inactive

CC(C)CCn1ccc(N(C)Cc2ccccc2)c(C#N)c1=O
metabolised at 0.25 h, 5 µM [1]: 100%
EC50 [2]: 10700 nM
Emax [3]: 249%
metabolised at 0.25 h, 5 µM [4]: 69%

CC(C)CCn1ccc(N2CCC(c3ccccc3)CC2)c(C#N)c1=O
metabolised at 0.25 h, 5 µM [1]: 97%
EC50 [2]: 102 nM
Emax [3]: 268%
metabolised at 0.25 h, 5 µM [4]: 28%

CC(C)CCn1ccc(N2CCCC(c3ccccc3)C2)c(C#N)c1=O (stereo unspecified)
metabolised at 0.25 h, 5 µM [1]: 98%
EC50 [2]: 3310 nM
Emax [3]: 231%
metabolised at 0.25 h, 5 µM [4]: 80%
